Reference: ChEMBL document CHEMBL1201862, “PubChem BioAssay data set” (2004)
Active and inactive are the calls of the source.

How the values were obtained:
[1] = cells
[2] = HEp-2 cell cytotoxicity, dose response, cytotoxicity control for RSV inhibitor project, HTS (AID 2410); type: functional; conditions: human respiratory syncytial virus
[3] = A cytotoxicity screen of small molecule inhibitors of the PhoP region in Salmonella typhi identified in the primary screen. [Related pubchem assays: 1850, 1864, 1985 ]; type: functional
[4] = cells; type: functional, cell-based
[5] = cells; type: functional, cell-based; remark: listed apart in the source
[6] = test system: Streptococcus; test: Group A Streptococcus viability loss, dose response, counter-screen for streptokinase expression inhibitor project, luminescence, BacTiterGlo (AID 1915); type: functional, organism-based;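 further: potency for reduction of bacterial viability or growth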
[7] = Luminescence Cell-Based Dose Response HTS to Identify Inhibitors of 5'UTR Stem-Loop Driven Prion Protein mRNA Translation in H4 Neuroglioblastoma Cells. [Related pubchem assays: 1827 (Project Summary), 1813 (Primary HTS)]; type: functional
[8] = inhibitors of firefly luciferase expression or activity, dose response, H4 neuroglioma cells, luminescence (AID 1990); type: functional, cell-based
[9] = target: T1, Streptokinase A (Streptococcus pyogenes serotype M1, UniProt P10520); test: S. pyogenes streptokinase expression inhibitors, potency, dose response, plasminogen activation absorbance, OD405 (AID 1914); type: functional, Streptococcus pyogenes M1 GAS;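 further: secreted streptokinase activity via plasminogen activation per viability signal from cell pellet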
T1 sequence (P10520 whole entry): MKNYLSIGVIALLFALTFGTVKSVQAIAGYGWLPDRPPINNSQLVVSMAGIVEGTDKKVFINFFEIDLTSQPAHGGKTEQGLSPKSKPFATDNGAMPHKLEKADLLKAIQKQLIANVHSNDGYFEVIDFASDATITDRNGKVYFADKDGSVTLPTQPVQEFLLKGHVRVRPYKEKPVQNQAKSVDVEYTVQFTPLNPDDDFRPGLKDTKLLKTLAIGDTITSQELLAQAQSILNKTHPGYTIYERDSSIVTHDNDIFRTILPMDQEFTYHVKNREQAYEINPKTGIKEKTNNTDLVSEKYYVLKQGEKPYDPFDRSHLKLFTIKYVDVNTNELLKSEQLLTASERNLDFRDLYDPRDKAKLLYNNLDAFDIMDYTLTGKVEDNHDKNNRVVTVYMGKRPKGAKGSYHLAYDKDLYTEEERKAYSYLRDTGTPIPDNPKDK

[10] = test system: Streptococcus sp. 'group A'; test: growth inhibition of control SK(-) GAS strain, dose response, counter-screen for streptokinase expression inhibitor project, luminescence, kanamycin, BacTiterGlo, confirmation (AID 1900); type: functional, organism-based
[11] = growth suppression of PTEN-null colon cells, dose response, cell-based, HCT116 PTEN knockout (AID 1047); type: functional;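 further: HCT116 colon tumor cells with PTEN knocked out; cells exposed to compound for 60 hours before readout; potency for loss of cell viability measured by luminescence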
[12] = growth suppression of beta-catenin-knockout colon cells, dose response, cell-based, HCT116, human colon tumor (AID 1045); type: functional;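 further: HCT116 colon tumor cells with beta catenin knocked out; cells exposed to compound for 60 hours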
[13] = target: T2, Heat shock factor protein 1 (Mus musculus, UniProt P38532); test: HSF1 potentiators in luciferase reporter cells, confirmation, cell-based, NIH3T3, luminescence, dose retest (AID 435004); type: functional;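 further: stress induced by proteasome inhibitor MG132 added 30 min after compound; luciferase reporter driven by HSF1 response element in NIH3T3 cells; actives raise luminescence as potentiators of the MG132 stress response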
T2 sequence (P38532 whole entry): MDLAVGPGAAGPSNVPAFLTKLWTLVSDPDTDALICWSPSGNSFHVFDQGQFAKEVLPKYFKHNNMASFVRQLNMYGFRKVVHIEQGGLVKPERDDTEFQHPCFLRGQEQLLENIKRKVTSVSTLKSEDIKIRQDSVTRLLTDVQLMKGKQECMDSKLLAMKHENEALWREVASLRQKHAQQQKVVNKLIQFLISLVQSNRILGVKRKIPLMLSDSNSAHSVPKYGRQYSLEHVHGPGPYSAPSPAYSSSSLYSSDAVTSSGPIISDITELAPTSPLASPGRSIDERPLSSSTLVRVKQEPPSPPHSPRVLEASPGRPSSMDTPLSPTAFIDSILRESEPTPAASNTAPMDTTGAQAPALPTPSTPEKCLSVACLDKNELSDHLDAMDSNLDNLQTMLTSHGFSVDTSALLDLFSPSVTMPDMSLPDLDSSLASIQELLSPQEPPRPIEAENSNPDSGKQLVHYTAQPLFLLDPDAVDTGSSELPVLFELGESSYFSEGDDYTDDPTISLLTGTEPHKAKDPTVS

[14] = target: T3, Protein skinhead-1 (Caenorhabditis elegans, UniProt P34707); type: functional
T3 sequence (P34707 whole entry): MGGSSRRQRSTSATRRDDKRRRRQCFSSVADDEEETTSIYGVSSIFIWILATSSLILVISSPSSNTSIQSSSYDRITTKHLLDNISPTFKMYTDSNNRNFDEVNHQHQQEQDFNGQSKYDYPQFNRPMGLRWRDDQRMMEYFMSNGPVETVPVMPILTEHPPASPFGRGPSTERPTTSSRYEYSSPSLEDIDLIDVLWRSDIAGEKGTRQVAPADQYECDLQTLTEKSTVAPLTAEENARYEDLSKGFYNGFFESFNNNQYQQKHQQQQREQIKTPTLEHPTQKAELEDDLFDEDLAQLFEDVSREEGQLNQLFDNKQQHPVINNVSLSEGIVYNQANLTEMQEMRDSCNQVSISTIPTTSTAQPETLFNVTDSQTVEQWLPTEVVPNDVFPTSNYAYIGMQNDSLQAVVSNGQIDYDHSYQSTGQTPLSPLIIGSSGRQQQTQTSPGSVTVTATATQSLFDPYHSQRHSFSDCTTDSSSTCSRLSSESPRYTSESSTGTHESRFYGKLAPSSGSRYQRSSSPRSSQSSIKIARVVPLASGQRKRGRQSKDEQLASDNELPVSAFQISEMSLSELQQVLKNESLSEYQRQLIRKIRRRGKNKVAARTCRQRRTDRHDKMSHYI

[15] = inhibitors of SNCA 5'UTR-driven reporter translation, confirmation, H4 neuroglioma cells, luminescence (AID 1988); type: functional, cell-based

CN(C)c1ccc(NC(=O)/C=C/c2c(Cl)cccc2Cl)cc1
IC50 [1]: 10.2 µM (active) | CC50 [2]: 17.3 µM (active)

Cc1nc(C)c(-c2ccc(SCc3ccccc3F)nn2)s1
EC50 [3]: > 50 µM (active)

COC(=O)C1=C(C)N(Cc2ccco2)C(=O)N[C@H]1c1cccc(C(F)(F)F)c1
IC50 [1]: 1.47 µM (active) | CC50 [2]: 25.6 µM (active)

COc1ccc(Cn2c(=N)c(C(=O)NCC3CCCO3)cc3c(=O)n4ccccc4nc32)cc1 (stereo unspecified)
EC50 [3]: > 50 µM (active)

COc1ccc(S(=O)(=O)N2CCOC2CNC(=O)C(=O)NCc2ccc3c(c2)OCO3)cc1OC (stereo unspecified)
EC50 [4]: > 350 µM (not active) | EC50 [5]: > 350 µM (not active)

CCc1nc(SCC(=O)N2c3ccccc3CC2C)c2c(C)c(C)sc2n1 (stereo unspecified)
EC50 [6]: > 150 µM (not active) | EC50 [7]: 18 µM (active) | EC50 [8]: > 120 µM (not active) | IC50 [1]: 3.55 µM (active) | CC50 [2]: 5.39 µM (active) | EC50 [9]: 57.8 µM (active) | EC50 [10]: 13.8 µM (active)

NC(=O)c1c(NC(=O)CSc2nc(N)cc(O)n2)sc2c1CCCC2
EC50 [3]: > 50 µM (active)

O=C(N/N=C/c1cccnc1)c1ccc([N+](=O)[O-])cc1Cl
EC50 [3]: > 50 µM (active)

CCCCNC(=O)CCn1c(=O)c2ccccc2n(Cc2ccc(Cl)cc2)c1=O
EC50 [11]: 18 µM (active) | EC50 [12]: 19.5 µM (active)

CCOC(=O)c1c(C)[nH]c(C(=O)OCC(=O)Nc2cc(C)c(Cl)cc2OC)c1C
EC50 [11]: 12.8 µM (active) | EC50 [12]: 16.2 µM (active)

Cc1ccc(S/C=C\C(=O)c2ccccc2)cc1
EC50 [11]: 98.5 µM (active) | EC50 [13]: 8.81 µM (active) | EC50 [12]: 33.1 µM (active) | IC50 [14]: 32.9 µM (active)

N=C(NOS(=O)(=O)c1ccccc1)c1cccnc1
EC50 [3]: > 50 µM (active)

COc1cccc(C(=O)SC2=NCCS2)c1
EC50 [4]: > 350 µM (not active) | EC50 [5]: 55.8 µM (active)

CCCCN(CC)S(=O)(=O)c1ccc(C(=O)/N=c2\sc3cc(NC(C)=O)ccc3n2C)cc1
EC50 [11]: 17.1 µM (active) | EC50 [12]: 10.2 µM (active)

O=C(CSc1nnc(-c2ccccc2Cl)o1)N1CCOCC1
EC50 [4]: > 350 µM (not active) | EC50 [5]: > 350 µM (not active)

Cc1cccc(NS(=O)(=O)c2ccc(C)c(C(=O)OCC(=O)Nc3cc(C)on3)c2)c1
EC50 [7]: > 120 µM (not active) | EC50 [8]: 41.1 µM (active) | IC50 [1]: 30.8 µM (active) | EC50 [15]: 28.1 µM (active) | CC50 [2]: 23.9 µM (active)

COC(=O)C1=C(C)N(Cc2ccc(OC)cc2)C(=O)C1
EC50 [4]: > 350 µM (not active) | EC50 [5]: > 350 µM (not active)

Cc1occc1C(=O)NC1CCCCCC1
EC50 [4]: > 350 µM (not active) | EC50 [5]: 73 µM (active)
